Experimental data as given in patent US8969413B2.
Read-outs that look alike come from different tables or passages of the source.

Key:
Mice = experiment: subcutaneous picrotoxin (scPIC); assay type: in vivo
Experimental: Bicuculline (Bic) and Picrotoxin (Pic) are chemoconvulsants that cause clonic seizures in a manner similar to Metrazol (see scMET test). […] Therefore, as much as possible it is useful to differentiate novel AEDs pharmacologically. […]. At a previously determined time of peak effect (TPE), the animals are given a subcutaneous injection of either of the noted chemo-convulsants using the convulsive dose (CD97—a dose of 2.7 or 2.5 mg/kg, for Bic and Pic, respectively). The experimental animals are placed in isolation cages to minimize possible crowding stresses (Swinyard et al., 1961) and observed for the next 30 minutes (for Bic) or 45 minutes (for Pic) for the presence or absence of a seizure. An episode of clonic spasms, approximately 3-5 seconds, of the fore and/or hindlimbs, jaws, or vibrissae is used as the experimental endpoint.

hGAT-1 = biological target: T1, hGAT-1 (Homo sapiens, UniProt P30531); experiment: [3H]GABA uptake at human GABA transporters, tsA201 cells; assay type: cell-based
T1 construct: expressed in transfected cells; host or cells: tsA201 cells, transient (PolyFect)
Experimental: (§1) tsA201 cells were cultured in GlutaMAX-I DMEM supplemented with 10% fetal bovine serum, penicillin (100 U/ml), and streptomycin (100 μg/ml) at 37° C. in a humidified atmosphere of 95% air and 5% CO2. […] J. Biol. Chem. 2007, 282, 19331-19341. […] Quantification was performed by using Microscint™ 20 scintillation fluid (PerkinElmer) and a Packard TopCount microplate scintillation counter.

hGAT-3 = biological target: T2, hGAT-3 (Homo sapiens, UniProt P48066); experiment: as above; assay type: cell-based
T2 construct: expressed in transfected cells; host or cells: tsA201 cells, transient (PolyFect)
Experimental: as §1

mGAT3 = biological target: T3, mGAT3 (Mus musculus, UniProt P31649); experiment: [3H]GABA uptake at mouse GABA transporters, HEK-293 cells; assay type: cell-based
T3 construct: expressed in transfected cells
Experimental: (§2) Cortical neurons were cultured essentially as previously described by removing the neopallium of 15-day old NMRI embryos by dissection followed by mild trypsination. Hertz E, Yu A C H, Hertz L, Juurlink B H J and Schousboe A. Preparation of Primary Cultures of Mouse Cortical Neurons, in A Dissection and Tissue Culture Manual of the Nervous System (Shahar A, de Vellis J, Vernadakis A and Haber B eds) pp 183-186, Alan R. Liss, Inc., New York, 198. The neurons were cultured in 10% fetal calf serum and, after 48 h, cytosine arabinoside was added to a final concentration of 20 μM to prevent glial proliferation. Four cultures of stably transfected Human Embryonic Kidney (HEK)-293 cells expressing mGAT1-4 were prepared by the method previously reported. […] J Pharmacol Exp Ther. 2002, 302, 636-644 The stable cell lines are under the selection pressure of blasticidin-S at 5 μg/mL. Determinations of the IC50 values were conducted as described earlier. […] Radioactivity was measured using Microscint™ 20 scintillation fluid (PerkinElmer) and a Packard TopCount microplate scintillation counter.

mGAT2 = biological target: T4, mGAT2 (Mus musculus, UniProt P31651); experiment: as above; assay type: cell-based
T4 construct: expressed in transfected cells
Experimental: as §2

mGAT4 = biological target: T5, mGAT4 (Mus musculus, UniProt P31650); experiment: as above; assay type: cell-based
T5 construct: expressed in transfected cells
Experimental: as §2

mGAT1 = biological target: T6, mGAT1 (Mus musculus, UniProt P31648); experiment: as above; assay type: cell-based
T6 construct: expressed in transfected cells
Experimental: as §2

Wistar Albino rats = assay type: in vivo; settings: 20 mg/kg versus vigabatrin 200 mg/kg, 45 and 90 days
Experimental: […]. The formulations for each treatment group were prepared fresh weekly in 0.9% normal saline.
All animals were acclimated for 7 days to the test facility prior to the start of dosing and were housed in individual polycarbonate cages. The cage environment uses a standard 12 hr/12 hr light dark cycle, with standard industrial fluorescent lighting during the light cycle. During the course of the study, the animals were monitored for mortality, moribundity, clinical signs of illness, feed intake, and body weight change. Any animals found in distress for more than 24 hours were humanely euthanized. […]. […] At the conclusion of the dosing phase (5 of each sex for 45 days and 10 of each sex for 90 days), the animals entered a 5-7 day “washout” period, after which electroretinograms (ERGs) were measured for both eyes. The animals were then humanely euthanized, by CO2 asphyxiation in accordance with AVMA guidelines on euthanasia, for post-mortem pathology examinations. […]
The electroretinograms were measured with an Espion^2 ERG system with ColorDome Ganzfeld type illuminator by Diagnosys. […]

Sprague-Dawley rats = settings: for time spent in chamber, first printed value / time spent in chamber, second printed value: 1.0 mg/kg i.p.
[1] = cocaine/saline+compound pairings, cocaine 20 mg/kg
[2] = saline/Compound 2 (CPP-115) pairings

T1 sequence (P30531 whole entry): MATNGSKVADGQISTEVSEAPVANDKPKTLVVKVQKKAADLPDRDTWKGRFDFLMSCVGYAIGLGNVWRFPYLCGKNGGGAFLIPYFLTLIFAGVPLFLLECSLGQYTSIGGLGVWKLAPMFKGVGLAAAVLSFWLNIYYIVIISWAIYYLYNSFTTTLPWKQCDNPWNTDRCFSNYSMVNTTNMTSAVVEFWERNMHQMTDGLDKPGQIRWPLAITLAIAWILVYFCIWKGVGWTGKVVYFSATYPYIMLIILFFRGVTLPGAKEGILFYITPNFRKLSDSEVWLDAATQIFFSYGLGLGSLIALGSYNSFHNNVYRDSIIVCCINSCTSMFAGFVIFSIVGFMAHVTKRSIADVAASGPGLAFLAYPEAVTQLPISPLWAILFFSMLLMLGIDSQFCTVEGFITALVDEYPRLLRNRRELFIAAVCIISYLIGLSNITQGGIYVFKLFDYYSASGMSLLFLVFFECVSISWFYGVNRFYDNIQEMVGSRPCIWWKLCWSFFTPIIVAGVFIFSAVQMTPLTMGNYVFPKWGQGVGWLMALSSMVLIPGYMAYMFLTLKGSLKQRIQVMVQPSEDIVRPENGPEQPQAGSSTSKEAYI
T4 sequence (P31651 whole entry): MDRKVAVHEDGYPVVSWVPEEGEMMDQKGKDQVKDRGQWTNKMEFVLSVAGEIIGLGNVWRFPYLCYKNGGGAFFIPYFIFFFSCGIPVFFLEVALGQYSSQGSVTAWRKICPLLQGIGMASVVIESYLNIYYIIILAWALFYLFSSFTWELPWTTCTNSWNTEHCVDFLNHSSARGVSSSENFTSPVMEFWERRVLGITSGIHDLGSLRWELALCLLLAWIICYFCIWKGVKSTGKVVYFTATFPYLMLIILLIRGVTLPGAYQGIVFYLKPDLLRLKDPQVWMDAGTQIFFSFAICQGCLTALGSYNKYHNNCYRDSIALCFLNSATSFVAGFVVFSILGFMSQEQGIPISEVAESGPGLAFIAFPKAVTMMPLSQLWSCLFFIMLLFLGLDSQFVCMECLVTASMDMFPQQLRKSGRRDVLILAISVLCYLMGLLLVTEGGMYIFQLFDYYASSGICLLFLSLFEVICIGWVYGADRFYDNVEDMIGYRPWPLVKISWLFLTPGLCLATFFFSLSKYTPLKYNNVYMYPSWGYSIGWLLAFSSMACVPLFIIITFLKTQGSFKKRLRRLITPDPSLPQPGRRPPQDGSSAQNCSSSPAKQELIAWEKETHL
T2 sequence (P48066 whole entry): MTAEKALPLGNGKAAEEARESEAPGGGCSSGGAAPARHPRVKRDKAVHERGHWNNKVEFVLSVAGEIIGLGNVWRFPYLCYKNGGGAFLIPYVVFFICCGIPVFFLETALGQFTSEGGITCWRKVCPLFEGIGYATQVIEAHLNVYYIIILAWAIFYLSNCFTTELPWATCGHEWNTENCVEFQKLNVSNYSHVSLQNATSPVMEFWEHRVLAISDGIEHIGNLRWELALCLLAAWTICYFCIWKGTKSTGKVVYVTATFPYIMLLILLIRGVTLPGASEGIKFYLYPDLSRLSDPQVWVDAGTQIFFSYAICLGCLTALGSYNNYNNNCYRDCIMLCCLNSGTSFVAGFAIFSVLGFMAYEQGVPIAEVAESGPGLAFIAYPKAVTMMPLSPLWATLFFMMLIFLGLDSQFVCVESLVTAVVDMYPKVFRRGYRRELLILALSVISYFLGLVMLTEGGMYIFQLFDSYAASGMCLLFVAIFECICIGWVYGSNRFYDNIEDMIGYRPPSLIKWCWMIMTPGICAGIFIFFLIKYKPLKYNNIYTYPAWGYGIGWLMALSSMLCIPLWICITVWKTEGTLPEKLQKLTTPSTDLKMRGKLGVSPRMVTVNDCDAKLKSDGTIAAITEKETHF
T5 sequence (P31650 whole entry): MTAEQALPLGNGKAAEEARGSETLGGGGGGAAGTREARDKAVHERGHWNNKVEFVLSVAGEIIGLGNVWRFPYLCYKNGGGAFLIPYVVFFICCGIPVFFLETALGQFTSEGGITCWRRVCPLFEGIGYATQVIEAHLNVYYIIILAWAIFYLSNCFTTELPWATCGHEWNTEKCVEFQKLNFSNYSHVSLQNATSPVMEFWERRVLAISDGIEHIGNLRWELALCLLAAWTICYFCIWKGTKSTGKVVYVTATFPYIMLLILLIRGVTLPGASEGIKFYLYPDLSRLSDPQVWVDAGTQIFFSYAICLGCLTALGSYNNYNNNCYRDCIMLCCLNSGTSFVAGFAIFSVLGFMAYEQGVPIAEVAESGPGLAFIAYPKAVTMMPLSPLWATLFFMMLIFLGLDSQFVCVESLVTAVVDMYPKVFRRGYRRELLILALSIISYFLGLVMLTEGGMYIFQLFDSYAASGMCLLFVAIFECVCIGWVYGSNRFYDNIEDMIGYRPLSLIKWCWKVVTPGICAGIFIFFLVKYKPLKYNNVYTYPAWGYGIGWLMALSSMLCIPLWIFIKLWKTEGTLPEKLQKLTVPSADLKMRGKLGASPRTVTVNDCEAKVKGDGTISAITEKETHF
T3 sequence (P31649 whole entry): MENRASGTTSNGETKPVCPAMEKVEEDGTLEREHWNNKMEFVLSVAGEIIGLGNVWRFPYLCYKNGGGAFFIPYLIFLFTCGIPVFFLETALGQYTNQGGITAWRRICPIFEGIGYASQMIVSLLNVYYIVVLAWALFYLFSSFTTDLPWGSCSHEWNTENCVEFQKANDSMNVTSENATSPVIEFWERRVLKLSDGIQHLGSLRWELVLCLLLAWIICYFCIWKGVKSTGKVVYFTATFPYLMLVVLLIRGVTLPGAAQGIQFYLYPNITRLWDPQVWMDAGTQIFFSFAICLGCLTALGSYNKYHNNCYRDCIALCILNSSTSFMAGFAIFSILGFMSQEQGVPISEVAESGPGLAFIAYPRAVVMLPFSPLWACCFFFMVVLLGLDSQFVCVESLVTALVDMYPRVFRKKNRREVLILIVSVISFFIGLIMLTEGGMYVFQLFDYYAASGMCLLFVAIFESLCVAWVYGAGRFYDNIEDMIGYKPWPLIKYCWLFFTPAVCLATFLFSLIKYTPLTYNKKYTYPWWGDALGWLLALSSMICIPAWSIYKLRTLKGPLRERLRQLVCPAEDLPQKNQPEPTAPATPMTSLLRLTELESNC

N[C@H]1C[C@@H](C(=O)O)CC1=C(F)F [CPP-115]
ED50 (Mice; Mus musculus, ip, read-out: scPIC ED50): 60.7 mg/kg | scPIC TPE (Mice; Single IP drug dose, 2.5 mg/kg PIC): TPE 2 hours | IC50 (hGAT-1): > 1 mM | IC50 (hGAT-3): > 1 mM | IC50 (mGAT3): > 1 mM | IC50 (mGAT2): > 1 mM | IC50 (mGAT4): > 1 mM | IC50 (mGAT1): > 1 mM | visual field defects compared with vigabatrin (Wistar Albino rats): less visual field defects than vigabatrin | expression of cocaine-induced CPP (Sprague-Dawley rats; 1.0 mg/kg i.p. 2.5 h before test, cocaine 20 mg/kg, listed as 2): blocked the expression of cocaine-induced CPP | effect on cocaine-induced CPP relative to vigabatrin (Sprague-Dawley rats; 1.0 mg/kg versus vigabatrin 300 mg/kg): 300 times | time spent in chamber, first printed value (Sprague-Dawley rats; [1]): 7.9 ± 1.5 min | time spent in chamber, second printed value (Sprague-Dawley rats; [1]): 7.1 ± 1.9 min | time spent in chamber, first printed value (Sprague-Dawley rats; [2]): 8.1 ± 3.2 min | time spent in chamber, second printed value (Sprague-Dawley rats; [2]): 6.9 ± 3.9 min
